Experimental data from patent publication US12006330B2, “Substituted macrocyclic compounds and related methods of treatment” (Alkermes, Inc., priority 2020, dated 2024).

Tests used:
[1] = molecular target: T1, human orexin-2 receptor (OX2R) (Homo sapiens, UniProt O43614); assay: Human OX2R IP1 assay; assay type: cell-based; settings: T-Rex CHO cells stably overexpressing human OX2R; IP1 accumulation; 1 hr at 37 degrees C; mean EC50
T1 construct: expressed in transfected cells
T1 sequence (O43614 1-444): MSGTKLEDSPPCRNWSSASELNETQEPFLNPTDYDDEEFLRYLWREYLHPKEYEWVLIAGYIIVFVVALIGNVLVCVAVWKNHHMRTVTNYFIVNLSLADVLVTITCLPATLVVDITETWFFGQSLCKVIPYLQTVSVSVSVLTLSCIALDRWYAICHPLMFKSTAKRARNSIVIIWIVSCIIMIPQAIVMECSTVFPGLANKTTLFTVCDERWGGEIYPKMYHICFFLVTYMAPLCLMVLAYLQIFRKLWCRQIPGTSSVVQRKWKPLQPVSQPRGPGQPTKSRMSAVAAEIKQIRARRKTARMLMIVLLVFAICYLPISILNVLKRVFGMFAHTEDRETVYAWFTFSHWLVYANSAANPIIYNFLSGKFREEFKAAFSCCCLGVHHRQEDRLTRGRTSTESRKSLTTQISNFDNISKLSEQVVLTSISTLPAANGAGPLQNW
How it was run: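 T-Rex CHO cells stably expressing human OX2R, doxycycline-induced (1 μg/mL) overnight, treated with compounds 1 h at 37 °C in pH 7.4 buffer with 50 mM LiCl. IP1 accumulation read by HTRF competitive immunoassay after 1 h at room temperature; agonist EC50 reported as mean ± S.E.M.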

[2] = test system: MDR1; assay: MDCK-MDR1 permeability assay; assay type: in vitro ADME; settings: dog, MDCK-MDR1, MDCK-MDR1 cells; for efflux ratio at 2 h, 3 μM: Papp B→A divided by Papp A→B, read-out: Efflux ratio (ER); for Papp A→B at 2 h, 3 μM: test compound 3 μM, 2 hours at 37 degrees C, apical to basolateral
How it was run: (§1)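 Receiver and donor compartments were analysed by LC-MS/MS after a 2 h incubation at 37 °C of 3 μM compound in HBSS on MDCK-MDR1 monolayers, run in both directions with Lucifer Yellow (100 μM) as integrity marker. Apparent permeability came from translocation rate, insert area and initial concentration; B→A/A→B Papp gave the efflux ratio, alongside percent recovery.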

[3] = test system: MDCK-MDR1 cells; assay: MDCK-MDR1 permeability assay; assay type: in vitro ADME; settings: MDCK-MDR1 cells; test compound 3 μM; 2 hours at 37 degrees C; apical to basolateral
How it was run: as §1

Row | SMILES | EC50 [1] [µM] | efflux ratio at 2 h, 3 μM [2] | Papp A → B (10^−6 cm/s) [3] | Papp A→B at 2 h, 3 μM [2] [×10⁻⁶ cm/s]
1 | Cc1ncnc2c1[C@H]1CC[C@H](CC1)OCC1[C@@H](NS(C)(=O)=O)CCCN1C(=O)CO2 (stereo in doubt) [Compound 27] | < 0.01 | 48 | 0.33 10^−6 cm/s | –
2 | Cc1ncnc2c1[C@H]1CC[C@H](CC1)OCC1[C@@H](NS(=O)(=O)C(F)(F)F)CCCN1C(=O)CO2 (stereo in doubt) [Compound 99] | < 0.01 | 52 | – | 0.46
3 | Cc1cccc2c1[C@H]1CC[C@H](CC1)OC[C@H]1[C@@H](NS(C)(=O)=O)CCN1C(=O)CO2 [Compound 20] | < 0.01 | 6.4 | – | 6.8
4 | CC(C)S(=O)(=O)N[C@H]1CCN2C(=O)COc3c(F)cc(F)cc3[C@H]3CC[C@H](CC3)OC[C@@H]12 [Compound 29] | < 0.01 | 2.5 | – | 6.4
5 | COC(=O)N1CCC[C@H](NS(C)(=O)=O)[C@@H]1CO[C@H]1CC[C@@H](c2ccccc2)CC1 [Reference Compound A, methyl (2R,3S)-3-((methylsulfonyl)amino)-2-(((cis-4-phenylcyclohexyl)oxy)methyl)-piperidine-l-carboxylate, reference compound] | < 0.01 | 5.9 | – | 5

Next, values leading:

Row | EC50 [1] [µM] | efflux ratio at 2 h, 3 μM [2] | Papp A → B (10^−6 cm/s) [3] | Papp A→B at 2 h, 3 μM [2] [×10⁻⁶ cm/s] | SMILES
6 | < 0.01 | 47 | – | 0.96 | O=C1COc2ncccc2[C@H]2CC[C@H](CC2)OCC2[C@@H](NS(=O)(=O)C(F)(F)F)CCCN12 (stereo in doubt) [Compound 91]
7 | < 0.01 | 4.7 | – | 8.7 | Cc1ccnc2c1[C@H]1CC[C@H](CC1)OCC1[C@@H](NS(=O)(=O)C(F)(F)F)CCN1C(=O)CO2 (stereo in doubt) [Compound 94]
8 | < 0.01 | 15 | – | 2 | O=C1COc2cccc(F)c2[C@H]2CC[C@H](CC2)OCC2[C@@H](NS(=O)(=O)C(F)(F)F)CCCN12 (stereo in doubt) [Compound 95]
9 | < 0.01 | 57 | – | 0.52 | O=C1COc2nccnc2[C@H]2CC[C@H](CC2)OCC2[C@@H](NS(=O)(=O)C(F)(F)F)CCCN12 (stereo in doubt) [Compound 98]
10 | < 0.01 | 1.3 | – | 12 | O=C1COc2ccccc2[C@H]2CC[C@H](CC2)OCC2[C@@H](NS(=O)(=O)C(F)(F)F)CCN12 (stereo in doubt) [Compound 100]
11 | 0.01 to 1 | > 100 | – | 0.21 | CC(C)(O)C(=O)N1CC[C@H](NS(C)(=O)=O)[C@@H]1Cc1cccc(-c2cc(F)cc(F)c2)c1F [Reference Compound B, N-((2S,3S)-1-(2-hydroxy-2-methylpropanoy1)-2-((2,3′,5′-trifluorobipheny1-3-yl)methyl)pyrrolidin-3-yl)methanesulfonamide, reference compound]
